PubChem BioAssay AID248 (DTP/NCI, 2004)
Values joined by “and” are separate entries in the source; they are usually repeats but may differ in a detail not shown here. Equal values may be shown once. Toxic doses and inconclusive results are not listed. No stated cut-off is given here; in the data, active means T/C of 150% or more; inactive means T/C below 125%.

Tested on: L1210 leukemia ip in BDF1 mice, survival T/C
Test: NCI In Vivo Anticancer Drug Screen. Data for tumor model L1210 Leukemia (intraperitoneal) in B6D2F1 (BDF1) mice
Conditions: endpoint: mean survival time, higher = longer survival
In short: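 Antitumor effect is assessed in tumor-bearing animals. Survival in the compound arm is compared with a vehicle-dosed control arm and expressed as their quotient.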

[1] = dose: 100.0 mg/kg/injection, schedule: Q01DX001 (ip), vehicle: saline
[2] = dose: 200.0 mg/kg/injection, schedule: Q01DX001 (ip), vehicle: saline
[3] = dose: 400.0 mg/kg/injection, schedule: Q01DX001 (ip), vehicle: saline
[4] = dose: 50.0 mg/kg/injection, schedule: Q01DX009 (ip), vehicle: saline
[5] = dose: 100.0 mg/kg/injection, schedule: Q01DX009 (ip), vehicle: saline
[6] = dose: 100.0 mg/kg/injection, schedule: Q04DX003 (ip), vehicle: Klucel (hydroxypropylcellulose) (HPC)
[7] = dose: 200.0 mg/kg/injection, schedule: Q01DX009 (ip), vehicle: saline
[8] = dose: 200.0 mg/kg/injection, schedule: Q04DX003 (ip), vehicle: Klucel (hydroxypropylcellulose) (HPC)
[9] = dose: 100.0 mg/kg/injection, schedule: Q01DX001 (ip), vehicle: Klucel (hydroxypropylcellulose) (HPC)
[10] = dose: 200.0 mg/kg/injection, schedule: Q01DX001 (ip), vehicle: Klucel (hydroxypropylcellulose) (HPC)
[11] = dose: 400.0 mg/kg/injection, schedule: Q01DX001 (ip), vehicle: Klucel (hydroxypropylcellulose) (HPC)
[12] = dose: 100.0 mg/kg/injection, schedule: Q04DX003 (ip), vehicle: saline
[13] = dose: 200.0 mg/kg/injection, schedule: Q04DX003 (ip), vehicle: saline
[14] = dose: 100.0 mg/kg/injection, schedule: Q04DX003 (ip), vehicle: saline with Tween-80
[15] = dose: 100.0 mg/kg/injection, schedule: Q01DX001 (ip), vehicle: carboxymethylcellulose (CMC)
[16] = dose: 200.0 mg/kg/injection, schedule: Q01DX001 (ip), vehicle: carboxymethylcellulose (CMC)
[17] = dose: 400.0 mg/kg/injection, schedule: Q01DX001 (ip), vehicle: carboxymethylcellulose (CMC)
[18] = dose: 400.0 mg/kg/injection, schedule: Q04DX003 (ip), vehicle: Klucel (hydroxypropylcellulose) (HPC)
[19] = dose: 100.0 mg/kg/injection, schedule: Q01DX009 (ip), vehicle: saline with Tween-80
[20] = dose: 200.0 mg/kg/injection, schedule: Q01DX009 (ip), vehicle: saline with Tween-80

Measured: T/C

Cc1ccc(S(=O)(=O)/C=C(/I)C(=O)c2ccccc2)cc1
inactive: [1] 95 % of control | [2] 93 % of control | [3] 95 % of control

Cc1nc2sc3c(c2c(=O)[nH]1)CCCC3
inactive: dose: 50.0 mg/kg/injection, schedule: Q01DX001 (ip), vehicle: saline sonified 122 % of control | dose: 100.0 mg/kg/injection, schedule: Q01DX001 (ip), vehicle: saline sonified 103 % of control | dose: 200.0 mg/kg/injection, schedule: Q01DX001 (ip), vehicle: saline sonified 101 % of control

O=C(O)/C=C/C(=O)Nc1cc(Cl)cc2c1-c1c(Cl)cc(Cl)cc1C2=O
inactive: [4] 94 % of control | [5] 94 % of control | [6] 98 % of control | [7] 96 % of control | [8] 98 % of control

c1cc(-c2ccc(C3=NCCN3)cc2)ccc1C1=NCCN1
inactive: dose: 15.0 mg/kg/injection, schedule: Q01DX Z (ip), vehicle: saline 104 % of control | dose: 30.0 mg/kg/injection, schedule: Q01DX Z (ip), vehicle: saline 104 % of control | dose: 60.0 mg/kg/injection, schedule: Q01DX Z (ip), vehicle: saline 87 % of control

O=C1OCC(CN2CC3CCC(CC3)C2)=C1c1ccccc1
inactive: [9] 94 % of control | [10] 102 % of control | [11] 94 % of control

COc1cc(C(=O)OCCN(C(C)C)C(C)C)cc(OC)c1OC
inactive: [12] 101 % of control | [13] 95 % of control

O=C1C=C2C=CC3CC2(O1)C1CCCCN31 (centres undefined)
inactive: dose: 10.0 mg/kg/injection, schedule: Q01DX001 (ip), vehicle: saline 105 % of control | dose: 20.0 mg/kg/injection, schedule: Q01DX001 (ip), vehicle: saline 100 % of control | [1] 105 % of control and 102 % of control | [2] 104 % of control and 102 % of control

COc1cc(CN(C)C2CCCCC2)cc(OC)c1OC
inactive: dose: 6.25 mg/kg/injection, schedule: Q01DX009 (ip), vehicle: saline 103 % of control | dose: 12.5 mg/kg/injection, schedule: Q01DX009 (ip), vehicle: saline 103 % of control | dose: 25.0 mg/kg/injection, schedule: Q01DX009 (ip), vehicle: saline 100 % of control | dose: 25.0 mg/kg/injection, schedule: Q04DX003 (ip), vehicle: saline 97 % of control | [4] 94 % of control | dose: 50.0 mg/kg/injection, schedule: Q04DX003 (ip), vehicle: saline 103 % of control | [5] 90 % of control | [12] 100 % of control

C/C=C/CC(C/C=C/C)C1CC[N-]CC1.C/C=C/CC(C/C=C/C)C1CC[N-]CC1.[Cl][Pt+2]([Cl])([Cl])[Cl]
inactive: dose: 3.13 mg/kg/injection, schedule: Q01DX009 (ip), vehicle: other 94 % of control | dose: 6.25 mg/kg/injection, schedule: Q01DX009 (ip), vehicle: other 87 % of control | dose: 12.5 mg/kg/injection, schedule: Q01DX009 (ip), vehicle: other 105 % of control

CCCCCCCNC(=S)NNC(=O)CCCC(=O)NNC(=S)NCCCCCCC
inactive: dose: 50.0 mg/kg/injection, schedule: Q01DX001 (ip), vehicle: saline 98 % of control | [1] 96 % of control | [2] 96 % of control | [3] 90 % of control

O=C(/C(=C\c1ccccc1)CBr)c1ccc(Cl)cc1
inactive: [14] 119 % of control

CCOP(=O)(OCC)C1=C(CC)CC1
inactive: dose: 9.5 mg/kg/injection, schedule: Q01DX001 (ip), vehicle: other 109 % of control | dose: 19.0 mg/kg/injection, schedule: Q01DX001 (ip), vehicle: other 111 % of control | dose: 38.0 mg/kg/injection, schedule: Q01DX001 (ip), vehicle: other 106 % of control

C1=Nc2ccccc2/C1=C/c1cccs1
inactive: [15] 97 % of control | dose: 100.0 mg/kg/injection, schedule: Q01DX009 (ip), vehicle: carboxymethylcellulose (CMC) 96 % of control and 108 % of control | dose: 100.0 mg/kg/injection, schedule: Q04DX002 (ip), vehicle: carboxymethylcellulose (CMC) 100 % of control and 102 % of control | dose: 100.0 mg/kg/injection, schedule: Q04DX003 (ip), vehicle: carboxymethylcellulose (CMC) 95 % of control | [16] 98 % of control | dose: 200.0 mg/kg/injection, schedule: Q01DX009 (ip), vehicle: carboxymethylcellulose (CMC) 96 % of control and 105 % of control | dose: 200.0 mg/kg/injection, schedule: Q04DX002 (ip), vehicle: carboxymethylcellulose (CMC) 104 % of control and 110 % of control | dose: 200.0 mg/kg/injection, schedule: Q04DX003 (ip), vehicle: carboxymethylcellulose (CMC) 89 % of control | [17] 93 % of control | dose: 400.0 mg/kg/injection, schedule: Q01DX009 (ip), vehicle: carboxymethylcellulose (CMC) 89 % of control and 91 % of control | dose: 400.0 mg/kg/injection, schedule: Q04DX002 (ip), vehicle: carboxymethylcellulose (CMC) 103 % of control and 104 % of control

COC(=O)c1cc(C)[nH]c(=O)c1CN
inactive: dose: 75.0 mg/kg/injection, schedule: Q01DX001 (ip), vehicle: water 104 % of control | dose: 150.0 mg/kg/injection, schedule: Q01DX001 (ip), vehicle: water 107 % of control

O=P(Oc1ccccc1)(N1CCCC1)N1CCCC1
inactive: [4] 100 % of control | [5] 91 % of control | dose: 100.0 mg/kg/injection, schedule: Q04DX002 (ip), vehicle: saline 100 % of control | [7] 98 % of control | dose: 200.0 mg/kg/injection, schedule: Q04DX002 (ip), vehicle: saline 95 % of control

CCN(CC)CC(=O)NC(CCN(C)C)(c1cccc2ccccc12)C(C)C (centres undefined)
inactive: [4] 94 % of control | [5] 112 % of control | [12] 105 % of control | [7] 100 % of control | [13] 105 % of control

CCCCOC(=O)c1ccc(C)s1
inactive: [15] 95 % of control | [16] 101 % of control | [17] 95 % of control

Cc1c(C)c2c(Cl)c3ccccc3nc2c2ccccc12
inactive: dose: 50.0 mg/kg/injection, schedule: Q04DX003 (ip), vehicle: Klucel (hydroxypropylcellulose) (HPC) 102 % of control | [6] 100 % of control | [8] 112 % of control | [18] 100 % of control

COC(=O)c1ccc(OC(=O)Nc2ccc(C)c(NC(=O)Oc3ccc(C(=O)OC)cc3)c2)cc1
inactive: dose: 50.0 mg/kg/injection, schedule: Q01DX009 (ip), vehicle: saline with Tween-80 96 % of control | [19] 96 % of control | [20] 101 % of control

CN1CN(c2ccccc2)C2(CCN(c3nc4ccccc4s3)CC2)C1=O
inactive: [9] 91 % of control | [10] 94 % of control | [11] 96 % of control

O=C1NC2NC(=O)NC2N1 (centres undefined)
inactive: [19] 98 % of control | [14] 112 % of control | [20] 115 % of control | dose: 200.0 mg/kg/injection, schedule: Q04DX003 (ip), vehicle: saline with Tween-80 98 % of control | dose: 400.0 mg/kg/injection, schedule: Q01DX009 (ip), vehicle: saline with Tween-80 96 % of control | dose: 400.0 mg/kg/injection, schedule: Q04DX003 (ip), vehicle: saline with Tween-80 101 % of control

Cn1ncc2c(N)nc(-c3ccccc3)nc21
inactive: dose: 100.0 mg/kg/injection, schedule: Q04DX003 (ip), vehicle: other 97 % of control

c1ccc(COc2ccc(Nc3ccccc3)cc2)cc1
inactive: dose: 100.0 mg/kg/injection, schedule: Q01DX009 (ip), vehicle: Klucel (hydroxypropylcellulose) (HPC) 98 % of control | [6] 106 % of control | dose: 200.0 mg/kg/injection, schedule: Q01DX009 (ip), vehicle: Klucel (hydroxypropylcellulose) (HPC) 100 % of control | [8] 103 % of control | dose: 400.0 mg/kg/injection, schedule: Q01DX009 (ip), vehicle: Klucel (hydroxypropylcellulose) (HPC) 102 % of control | [18] 94 % of control

CCCS(=O)(=O)N1CCC(C)CC1
inactive: dose: 100.0 mg/kg/injection, schedule: Q04DX002 (ip), vehicle: Klucel (hydroxypropylcellulose) (HPC) 102 % of control | dose: 200.0 mg/kg/injection, schedule: Q04DX002 (ip), vehicle: Klucel (hydroxypropylcellulose) (HPC) 97 % of control | dose: 400.0 mg/kg/injection, schedule: Q04DX002 (ip), vehicle: Klucel (hydroxypropylcellulose) (HPC) 97 % of control
